Experimental data: patent publication US20100130449A1, “Use of Tri-Substituted Glycerol Compounds for the Treatment of Radiation Injuries” (ALPHAPTOSE GMBH, priority 2006, published 2010)

Tests used:
Format in all cases: in vivo
X-ray irradiated mice = assay: Survival of X-ray irradiated mice, ET18-OCH3 given after irradiation; details: for Death/Survival treated: 2 × 25 mg/kg intravenous 6 hours and 12 hours after irradiation
Protocol: The efficacy of 1-O-octadecyl-2-O-methyl-glycero-3-phosphocholine (in the following referred to as “ET18-OCH3”) as a radioprotectant in the treatment of an acute radiation injury that is caused by (mid)lethal radiation doses was analyzed by determining its influence on the survival rate of mice and on the hematological syndrome of the radiation injury in response to different types of radiation.
A single dose of 25 mg/kg ET18-OCH3 was administered at a time intravenously to 25 mice 12 hours after exposure to an X-ray dose of 650 cGy (centiGray). Only one of the 25 treated mice died, as compared to 6 of the 25 mice in the control group.
After an intravenous administration of 25 mg/kg ET18-OCH3 6 hours and 12 hours after X-ray irradiation, respectively, the following results were obtained (Table 1). The chi-square distribution is given for all positive values. The chi-square test was used for comparing the results of the treated versus the control animals.
After an oral administration of 25 mg/kg ET18-OCH3 6 hours and 24 hours after exposure to a X-ray dose of 700 cGy X-ray irradiation, respectively, 2 of 25 treated animals died, as compared to 7 of 25 of the control animals.

neutron irradiated mice [1] = assay: Survival of mice after neutron radiation, ET18-OCH3 given after irradiation; details: 400-420 cGy neutron radiation, 50 mg/kg subcutaneous
Protocol: Mice were irradiated using a van de Graaf generator with of 3-8 MeV neutrons. The radiation doses used in the following analyses were 400, 410, and 420 cGy for each third of the treated and the control mice, respectively. A single dose of 50 mg/kg ET18-OCH3 was administered to half of the mice by subcutaneous injection.

gamma-radiated mice [2] = assay: Survival of mice after gamma irradiation, single dose of ET18-OCH3 before or after irradiation
neutron irradiated mice [3] = assay: Cell numbers in the peripheral blood of mice after neutron irradiation; details: for Granulocytes, median/interquartile distance / Leukocytes, median/interquartile distance / Lymphocytes, median/interquartile distance / Thrombocytes, median/interquartile distance: 300 cGy neutron
Protocol: Mice were irradiated using a van de Graaf generator with of 3-8 MeV neutrons. […] A single dose of 50 mg/kg ET18-OCH3 was administered to half of the mice by subcutaneous injection.
As the therapy experiments were carried out with an irradiation dose range, in which the hematological syndrome of the radiation injury predominates, the evaluation of the therapeutic effect of the drug on the blood forming (hematopoetic) system is important.

neutron irradiated mice [4] = assay: Survival of mice, ET18-OCH3 given 1 day before neutron irradiation
Source text: The effect of ET18-OCH3 before applying different doses of neutron radiation on the survival rates of mice are summarized in Table 5.

gamma-radiated mice [5] = assay: Survival of mice after gamma irradiation, single dose of ET18-OCH3 before or after irradiation; remark: listed apart in the source
Protocol: FIG. 1 depicts the radioprotective effect of ET18-OCH3 on the survival rate of mice. ET18-OCH3 was administered as a single dose of 50 mg/kg body weight to each of 40 mice (20 control mice, 20 test mice). 24 hours later, the 20 test mice were exposed to a gamma radiation dose of 7.9 Gy (Gray) and 8.7 Gy, respectively. The survival rates were monitored for 30 days.

neutron irradiated mice [6] = assay: White blood cell count (hemogram) after ET18-OCH3 and neutron irradiation
Protocol: FIG. 2 depicts the radioprotective effect of ET18-OCH3 (referred to as “ALP”) on the lymphocyte numbers of mice. Mice were treated with a single dose 70 mg/kg ET18-OCH3 (administered subcutaneously) 24 hours before exposure to neutron radiation (radiation dose 2.0 Gy). […]
FIG. 3 depicts the radioprotective effect of ET18-OCH3 (referred to as “ALP”) on the granulocyte numbers of mice. The experiment was performed in an analogous manner as described in FIG. 2.
The radioprotective effect of ET18-OCH3 on lymphocyte and granulocyte numbers in mice is shown in FIG. 2 and FIG. 3, respectively.

[7] = gamma 750 cGy, 30 mg/kg, a.r. (after radiation)
[8] = gamma 750 cGy, 50 mg/kg, 1 d before irradiation
[9] = gamma 775 cGy, 40 mg/kg, a.r. (after radiation)
[10] = gamma 775 cGy, 50 mg/kg, 2 h before irradiation
[11] = gamma 775 cGy, 50 mg/kg, 1 d before irradiation
[12] = gamma 800 cGy, 40 mg/kg, a.r. (after radiation)
[13] = gamma 800 cGy, 50 mg/kg, 2 h before irradiation
[14] = gamma 830 cGy, 50 mg/kg, 1 d before irradiation
[15] = gamma 870 cGy, 50 mg/kg, 1 d before irradiation
[16] = day 7, 50 mg/kg s.c. 30 min after irradiation
[17] = day 7, 50 mg/kg s.c. 2 h after irradiation
[18] = day 14, 50 mg/kg s.c. 30 min after irradiation
[19] = day 14, 50 mg/kg s.c. 2 h after irradiation
[20] = neutron 425 cGy, 50 mg/kg subcutaneously 1 day before irradiation
[21] = neutron 425 cGy, 70 mg/kg subcutaneously 1 day before irradiation
[22] = neutron 450 cGy, 50 mg/kg subcutaneously 1 day before irradiation
[23] = neutron 450 cGy, 70 mg/kg subcutaneously 1 day before irradiation
[24] = gamma 790 cGy, 50 mg/kg, 1 d before irradiation

Compound: CCCCCCCCCCCCCCCCCCOCC(COP(=O)([O-])OCC[N+](C)(C)C)OC (stereo not drawn) [ET18-OCH3, 1-O-octadecyl-2-O-methyl-glycero-3-phosphocholine]
- Death/Survival treated (X-ray irradiated mice; X-ray dose 650 cGy): 2/28
- Death/Survival treated (X-ray irradiated mice; X-ray dose 700 cGy): 3/25
- Death/Survival treated (X-ray irradiated mice; X-ray dose 750 cGy): 14/16
- Death/Survival treated (X-ray irradiated mice; X-ray dose 800 cGy): 22/8
- treated animals died (X-ray irradiated mice; oral 25 mg/kg 6 hours and 24 hours after X-ray dose of 700 cGy, control 7 of 25 died): 2 of 25
- treated mice died (X-ray irradiated mice; single dose 25 mg/kg intravenously 12 hours after X-ray dose of 650 cGy, control 6 of 25 died): one of the 25
- LD50/30 X-ray dose (X-ray irradiated mice; treated animals, 25 mg/kg intravenous 6 and 12 hours after irradiation, untreated controls 688.1±38.6): 749±37.1 cGy
- X-ray mediated lethality (X-ray irradiated mice; treated mice compared to control mice): delayed
- Survival/Death (neutron irradiated mice [1]; 30 min): 18 (75%)/6 (25%)
- Survival/Death (neutron irradiated mice [1]; 2 h): 13 (54%)/11 (46%)
- Survival/Death (neutron irradiated mice [1]; 6 h): 12 (52%)/11 (48%)
- Death (gamma-radiated mice [2]; [7]): 1 (6%)
- Survival (gamma-radiated mice [2]; [7]): 17 (94%)
- Death (gamma-radiated mice [2]; [8]): 0
- Survival (gamma-radiated mice [2]; [8]): 20 (100%)
- Death (gamma-radiated mice [2]; [9]): 12 (60%)
- Survival (gamma-radiated mice [2]; [9]): 8 (40%)
- Death (gamma-radiated mice [2]; [10]): 5 (25%)
- Survival (gamma-radiated mice [2]; [10]): 15 (75%)
- Death (gamma-radiated mice [2]; [11]): 2 (10%)
- Survival (gamma-radiated mice [2]; [11]): 18 (90%)
- Death (gamma-radiated mice [2]; [12]): 10 (29%)
- Survival (gamma-radiated mice [2]; [12]): 25 (71%)
- Death (gamma-radiated mice [2]; [13]): 3 (15%)
- Survival (gamma-radiated mice [2]; [13]): 17 (85%)
- Death (gamma-radiated mice [2]; [14]): 3 (15%)
- Survival (gamma-radiated mice [2]; [14]): 17 (85%)
- Survival (gamma-radiated mice [2]; [15]): 13 (65%)
- LD50/30 gamma radiation dose (gamma-radiated mice [2]; treated irradiated mice, ET18-OCH3 one day before irradiation, probit analysis, untreated irradiated controls 7.47 Gy): 8.98 Gy
- Granulocytes, median/interquartile distance (neutron irradiated mice [3]; [16]): 209/202
- Leukocytes, median/interquartile distance (neutron irradiated mice [3]; [16]): 975/450
- Lymphocytes, median/interquartile distance (neutron irradiated mice [3]; [16]): 684/255
- Thrombocytes, median/interquartile distance (neutron irradiated mice [3]; [16]): 698/427
- Granulocytes, median/interquartile distance (neutron irradiated mice [3]; [17]): 240/304
- Leukocytes, median/interquartile distance (neutron irradiated mice [3]; [17]): 675/413
- Lymphocytes, median/interquartile distance (neutron irradiated mice [3]; [17]): 446/132
- Thrombocytes, median/interquartile distance (neutron irradiated mice [3]; [17]): 900/315
- concentration of leukocytes and granulocytes in the peripheral blood (neutron irradiated mice [3]; day 10-15 after irradiation, when the irradiated mice died): significantly increases
- Granulocytes, median/interquartile distance (neutron irradiated mice [3]; [18]): 3063/3121
- Leukocytes, median/interquartile distance (neutron irradiated mice [3]; [18]): 8675/11827
- Lymphocytes, median/interquartile distance (neutron irradiated mice [3]; [18]): 7439/6942
- Thrombocytes, median/interquartile distance (neutron irradiated mice [3]; [18]): 533/263
- Granulocytes, median/interquartile distance (neutron irradiated mice [3]; [19]): 4189/2282
- Leukocytes, median/interquartile distance (neutron irradiated mice [3]; [19]): 9975/5863
- Lymphocytes, median/interquartile distance (neutron irradiated mice [3]; [19]): 5101/3765
- Thrombocytes, median/interquartile distance (neutron irradiated mice [3]; [19]): 987/464
- Death (neutron irradiated mice [4]; [20]): 11 (73%)
- Survival (neutron irradiated mice [4]; [20]): 4 (27%)
- Death (neutron irradiated mice [4]; [21]): 10 (67%)
- Survival (neutron irradiated mice [4]; [21]): 5 (33%)
- Death (neutron irradiated mice [4]; [22]): 8 (26%)
- Survival (neutron irradiated mice [4]; [22]): 22 (73%)
- Death (neutron irradiated mice [4]; [23]): 12 (80%)
- Survival (neutron irradiated mice [4]; [23]): 3 (20%)
- Death (neutron irradiated mice [4]; neutron 475 cGy, 50 mg/kg subcutaneously 1 day before irradiation): 19 (76%)
- Death (gamma-radiated mice [5]; [24]): 2 (10%)
- Survival (gamma-radiated mice [5]; [24]): 18 (90%)
- Death (gamma-radiated mice [5]; [15]): 7 (35%)
- radioprotective effect on survival (gamma-radiated mice [5]; similar when given either 24 hours or shortly before gamma irradiation): significant radioprotective effect
- reduction of leukocyte numbers (both of lymphocytes and granulocytes) compared to untreated controls (neutron irradiated mice [6]; 50 mg/kg and 70 mg/kg, neutron irradiation, not statistically significant, 5 experiments, n=90): slightly increased
- difference between the administration of 50 mg/kg and 70 mg/kg (neutron irradiated mice [6]; leukocyte numbers after neutron irradiation): No statistically significant difference
- leukocyte numbers (both lymphocytes and granulocytes) (neutron irradiated mice [6]; starting at day 3 after irradiation, significant at day 7 (4 experiments; n=30, p<0.003)): increase in leukocyte numbers
- number of lymphocyte relative to the normal value (neutron irradiated mice [6]; treated animals at mid-lethal irradiation doses, average): about one tenth
